From patent US12409172B2, “Dosage regimen” (UNION therapeutics A/S, priority 2023, dated 2025)

What was measured:
[1] = test system: TARC and other inflammatory markers in atopic dermatitis skin lesions; experiment: Skin tape strip biomarkers (OLINK FLEX panel) in the phase 2b atopic dermatitis study (Example 11); format: in vivo, human; settings: all treatment arms (20, 30, 40 mg BID)
Description: Stratum corneum skin samples were collected at the designated time points using the tape stripping method to evaluate biomarker expression levels. Tape stripping is a minimally invasive, nonscarring approach using serial adhesive films to capture the stratum corneum and the upper part of the granular layer.
At Baseline, before administration of study drug, 1 lesional and 1 non-lesional area were identified, and 20 consecutive skin samples were collected from each area. At Week 16, the same procedure was repeated only from the same lesional areas sampled at Baseline.
Skin tape strip samples were taken from lesional and non-lesional skin at baseline and lesional skin at week 16 of patients participating in the phase 2b, double-blinded, placebo-controlled, dose-finding study (20 mg, 30 mg and 40 mg orismilast modified release tablets BID) in patients with moderate-to-severe atopic dermatitis (NCT05469464) described in Example 8. […] The primary objective of the biomarker study was to evaluate the effect of orismilast on a broad spectrum of inflammatory markers in atopic dermatitis skin lesions using tape strips as a non-invasive sampling technology combined with the Olink® technology (OLINK® FLEX panel) using analogous methods to those described in Example 10.
A linear mixed effect model was used on all patients to estimate Ismeans with standard error and adjusted p value.

[2] = test system: adults with moderate to severe atopic dermatitis; experiment: Phase 2b study in atopic dermatitis (Example 8): treatment emergent adverse events; format: in vivo, human
Description: The exploratory objectives are to: • Evaluate pharmacokinetic (PK) and pharmacodynamic parameters relevant to AD • Evaluate the effect of orismilast on the pulmonary status and course of the disease in patients with asthma Primary Endpoint • Percentage change in Eczema Area and Severity Index (EASI) score from Baseline at Week 16. […]

Compound: O=C(Cc1c(Cl)c[n+]([O-])cc1Cl)c1ccc(OC(F)F)c2c1OC1(CCS(=O)(=O)CC1)O2 [orismilast, 2-(3,5-dichloro-1-oxidopyridin-1-ium-4-yl)-1-[7-(difluoromethoxy)-1′,1′-dioxospiro[1,3-benzodioxole-2,4′-thiane]-4-yl]ethanone]
- TARC in lesional skin at week 16 of treatment [1]: significant reduction
- patients experiencing any Treatment Emergent Adverse Event (TEAE) through Week 16 ([2]; 20 mg BID): 76%
- patients experiencing any Treatment Emergent Adverse Event (TEAE) through Week 16 ([2]; 30 mg BID): 79%
- patients experiencing any Treatment Emergent Adverse Event (TEAE) through Week 16 ([2]; 40 mg BID): 86%
